Molecular target: T1, Human steroid 5α-reductase (Homo sapiens, UniProt P31213)
T1 construct: The suspension was used as the source of 5α-reductase; from tissue; host or cells: frozen human prostate, whole homogenate in 0.1 M phosphate buffer pH 5.5
T1 sequence (P31213 1-254): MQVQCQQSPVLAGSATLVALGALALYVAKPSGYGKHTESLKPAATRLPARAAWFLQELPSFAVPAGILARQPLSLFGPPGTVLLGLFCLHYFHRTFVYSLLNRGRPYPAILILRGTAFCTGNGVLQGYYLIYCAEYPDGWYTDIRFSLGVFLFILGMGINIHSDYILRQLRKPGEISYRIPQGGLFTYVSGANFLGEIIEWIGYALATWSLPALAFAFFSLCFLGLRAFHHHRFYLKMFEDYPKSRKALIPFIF
Experiment: Human steroid 5α-reductase inhibiting effect using human prostatic tissue
Type: biochemical
Conditions: human prostate homogenate, pH 5.5, 50 nM [3H]testosterone, NADPH, 37° C., 10 min; Table 5
Description: Human steroid 5α-reductase inhibiting effect was examined on the compounds of the present invention using human prostatic tissue.
Frozen human prostate was thawed on ice and minced into small pieces (~5mm^3). The minced tissue was homogenized with a Polytron homogenizer (Kinematica, Switzerland) in 40 vol. of 0.1M phosphate buffer at pH 5.5. The suspension was used as the source of 5α-reductase.
For this test, DMSO solutions containing various amount of the inhibitor were employed.
Each reaction solution was incubated at 37° C. for 10 minutes and ethyl acetate (2 ml) chilled with ice was added for stopping the reaction. The organic layer was transferred to another test tube and evaporated to dryness under nitrogen. Each 50 μg of non radioactive testosterone, DHT, estradiol, androstenedione and androstandiol was added to the residue, and the wall of each test tube was washed with ethyl acetate (0.1 ml). The content of the tube was evaporated again and the residue was dissolved in chloroform (50 μl) and then applied to Whatman LK60DF silica plates (Whatman, N.J.), developing in chloroform:methanol (50:1). The bands of the substrates and products were identified by fluorescence (254 nm) and iodine, and the relevant silica gel was collected by scraping, mixed with toluene based liquid sincilator, and the radioactivity was counted. The radioactivities of DHT and androstandiol were combined for the calculation of 5α-reductase activity. […] The radioactivity for the control group was postulated as 100%.
IC50 were calculated from the data obtained from the above experiments.

Compound	IC50 [µM]
CC12CCC(C(=O)O)=CC1=CCCC2NC(=O)c1ccc(Oc2ccccc2)cc1 (centres unmarked) [Example 1]	3.3
CC12CCC(C(=O)O)=CC1=CCCC2NC(=O)c1cccc(Oc2ccccc2)c1 (centres unmarked) [Example 2, 5-(3'-phenoxybenzoylamino)-10-methyl-Δ^1(2),8(9) -octalin-2-carboxylic acid]	0.83
CC(C)c1ccc(Oc2cccc(C(=O)NC3CCC=C4C=C(C(=O)O)CCC43C)c2)cc1 (centres unmarked) [Example 4, 5-[3'-(p-isopropylphenoxy)benzoylamino]-10-methyl-Δ^1(2),8(9) -octalin-2-carboxylic acid]	0.81
CC(C)c1cccc(Oc2cccc(C(=O)NC3CCC=C4C=C(C(=O)O)CCC43C)c2)c1 (centres unmarked) [Example 5, 5-[3'-(m-isopropylphenoxy)benzoylamino]-10-methyl-Δ^1(2),8(9) -octalin-2-carboxylic acid]	0.46
Cc1ccc(Oc2cccc(C(=O)NC3CCC=C4C=C(C(=O)O)CCC43C)c2)cc1 (centres unmarked) [Example 7, 5-[3'-(p-tolyloxy)benzoylamino]-10-methyl-Δ^1(2),8(9) -octalin-2-carboxylic acid]	0.21
CC(C)Cc1ccc(Oc2cccc(C(=O)NC3CCC=C4C=C(C(=O)O)CCC43C)c2)cc1 (centres unmarked) [Example 9, 5-{3"-[p-(2'-methylpropyl]phenoxy)benzoylamino}-10-methyl-Δ^1(2),8(9) -octalin-2-carboxylic acid]	0.52
CC12CCC(C(=O)O)=CC1=CCCC2NC(=O)c1cccc(Oc2ccc(C3CCCCC3)cc2)c1 (centres unmarked) [Example 11, 5-[3'-(p-cyclohexylphenoxy)benzoylamino]-10-methyl-Δ^1(2),8(9) -octalin-2-carboxylic acid]	0.25
Cc1cc(C)cc(Oc2cccc(C(=O)NC3CCC=C4C=C(C(=O)O)CCC43C)c2)c1 (centres unmarked) [Example 13, 5-[3'-(3,5-dimethylphenoxy)benzoylamino]-10-methyl-Δ^1(2),8(9) -octalin-2-carboxylic acid]	0.66
CC12CCC(C(=O)O)=CC1=CCCC2NC(=O)c1cccc(Oc2ccc3c(c2)CCCC3)c1 (centres unmarked) [Example 14, 5-[3'-(5",6",7",8"-tetrahydro-2"-naphtoxy)benzoylamino]-10-methyl-Δ^1(2),8(9) -octalin-2-carboxylic acid]	0.44
CC12CCC(C(=O)O)=CC1=CCCC2NC(=O)c1cccc(OCc2ccccc2)c1 (centres unmarked) [Example 15, 5-(3'-benzyloxy-benzoylamino)-10-methyl-Δ^1(2),8(9) -octalin-2-carboxylic acid]	4.21
CC12CCC(C(=O)O)=CC1=CCCC2NC(=O)c1cccc(OC2CCCC2)c1 (centres unmarked) [Example 17, 5-(3'-cyclopentyloxybenzoylamino)-10-methyl-Δ^1(2),8(9) -octalin-2-carboxylic acid]	0.18
CC12CCC(C(=O)O)=CC1=CCCC2NC(=O)c1cccc(OC2CCCCCCC2)c1 (centres unmarked) [Example 20, 5-(3'-cyclooctyloxybenzoylamino)-10-methyl-Δ^1(2),8(9) -octalin-2-carboxylic acid]	0.27
CC(C)C1CCC(Oc2cccc(C(=O)NC3CCC=C4C=C(C(=O)O)CCC43C)c2)CC1 (centres unmarked) [Example 22, 5-[3-(4-isopropylcyclohexyloxy)benzoylamino]-10-methyl-Δ^1(2),8(9) -octalin-2-carboxylic acid]	0.52
CC12CCC(C(=O)O)=CC1=CCCC2NC(=O)c1cccc(O[C@H]2CC[C@H](C(C)(C)C)CC2)c1 (stereo partly drawn) [Example 23, 5-[3-(4-trans-t-butylcyclohexyloxy)benzoylamino]-10-methyl-Δ^1(2),8(9) -octalin-2-carboxylic acid]	0.3
CC12CCC(C(=O)O)=CC1=CCCC2NC(=O)c1cccc(OCC2CCCCC2)c1 (centres unmarked) [Example 31, 5-(3'-cyclohexylmethoxybenzoylamino)-10-methyl-Δ^1(2),8(9) -octalin-2-carboxylic acid]	0.41
CC12CCC(C(=O)O)=CC1=CCCC2NC(=O)c1cccc(CC2CCCCC2)c1 (centres unmarked) [Example 35, 5-(3'-cyclohexylmethylbenzoylamino)-10-methyl-Δ^1(2),8(9) -octalin-2-carboxylic acid]	0.16
CC(C)c1ccc(Oc2cc(Br)cc(C(=O)NC3CCC=C4C=C(C(=O)O)CCC43C)c2)cc1 (centres unmarked) [Example 37, 5-[3-bromo-5-(p-isopropylphenoxy)benzoylamino]-10-methyl-Δ^1(2),8(9) -octalin-2-carboxylic acid]	0.3
COc1ccc(C(=O)NC2CCC=C3C=C(C(=O)O)CCC32C)cc1OC1CCCCCC1 (centres unmarked) [Example 39, 5-(3'-cycloheptyloxy-4'-methoxybenzoylamino)-10-methyl-Δ^1(2),8(9) -octalin-2-carboxylic acid]	0.39
CC12CCC(C(=O)O)=CC1=CCCC2NC(=O)c1ccc2c(c1)OC1(CCCCC1)O2 (centres unmarked) [Example 42, 5-(3',4'-cyclohexylidenedioxybenzoylamino)-10-methyl-Δ^1(2),8(9)-octalin-2-carboxylic acid]	0.77
CC(C)(C)c1cc(C(=O)NC2CCC=C3C=C(C(=O)O)CCC32C)cc(C(C)(C)C)c1 (centres unmarked) [Example 43, 5-(3',5'-di-t-butylbenzoylamino)-10-methyl-Δ^1(2),8(9) -octalin-2-carboxylic acid]	0.23
C[C@@]12CCC(C(=O)O)=CC1=CCC[C@H]2NC(=O)c1cccc(OC2CCCCCC2)c1 [Example 45, (5R,10R)-5-(3'-cycloheptyloxybenzoylamino)-10-methyl-Δ^1(2),8(9)-octalin-2-carboxylic acid]	0.61
C[C@]12CCC(C(=O)O)=CC1=CCC[C@@H]2NC(=O)c1cccc(OC2CCCCCC2)c1 [Example 46, (5S,10S)-5-(3'-cycloheptyloxybenzoylamino)-10-methyl-Δ^1(2),8(9)-octalin-2-carboxylic acid]	0.3
C[C@]12CCC(C(=O)O)=CC1=CCC[C@@H]2NC(=O)c1cccc(OC(C2CC2)C2CC2)c1 [Example 47, (5S,10S)-5-(3'-dicyclopropylmethoxybenzoylamino)-10-methyl-Δ^1(2),8(9) -octalin-2-carboxylic acid]	0.16
CC(C)C(Oc1cccc(C(=O)N[C@H]2CCC=C3C=C(C(=O)O)CC[C@@]32C)c1)C(C)C [Example 48, (5S,10S)-5-[3'-(2",4"-dimethyl-3"-pentyloxy)benzoylamino]-10-methyl-Δ^1(2),8(9) -octalin-2-carboxylic acid]	0.065
Cc1c(OC2CCCCCC2)cccc1C(=O)NC1CCC=C2C=C(C(=O)O)CCC21C (centres unmarked) [Example 51, 5-(3'-cycloheptyloxy-2-methylbenzoylamino)-10-methyl -Δ^1(2),8(9) -octalin-2-carboxylic acid]	0.91
C[C@]12CCC(C(=O)O)=CC1=CC[C@@H]2NC(=O)c1cccc(OC(C2CC2)C2CC2)c1 [Example 54, (1S,8S)-1-[3'-(dicyclopropylmethyloxy)benzoylamino]-8a-methyl-1,2,6,7-tetrahydroindene-5-carboxylic acid]	0.16
